In patent US20160108049A1 (TAKEDA Gmbh, priority 2011, published 2016):

Key:
human PDE5 = target: T1, human PDE5 (Homo sapiens, UniProt O76074); experiment: Inhibition of PDE5 activity (platelet lysate, SPA assay); format: biochemical; settings: 0.5 μM cGMP, read-out: PDE5 Inhibitory values measured as -logIC50 (converted)
T1 construct: from tissue; host or cells: human platelets from fresh donor blood (platelet lysate)
Procedure, shortened: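 Human platelet lysate (10,000 g supernatant) served as PDE5 source, with 1 μM motapizone and 10 nM PDE2 inhibitor added, in Tris pH 7.4, 5 mM Mg2+, BSA. Substrate 0.5 μM [3H]cGMP, 10–20% conversion; 5 min preincubation then 15 min at 37 °C, stopped by SPA beads with IBMX. IC50 by non-linear regression.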

PDE4B1 = target: T2, PDE4B1 (Homo sapiens, UniProt Q07343); experiment: Inhibition of PDE4 activity (PDE4B1, SPA assay); format: biochemical; settings: recombinant PDE4B1, 0.5 μM cAMP; read-out: PDE4B1 Inhibitory values measured as -logIC50 (converted)
T2 construct: made in house; host or cells: SF21 insect cells (baculovirus; virus made in SF9 cells, pCR-Bac vector)
Procedure, shortened: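 Baculovirus-expressed enzyme from SF21 cell 1000×g supernatant; substrate 0.5 μM [3H]cAMP in 20 mM Tris pH 7.4, 5 mM Mg2+, 0.1 mg/ml BSA, 10-20% conversion. 5 min preincubation at 37 °C, 15 min reaction, stopped by SPA beads with IBMX; IC50 by non-linear regression.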

T2 sequence (Q07343 whole entry): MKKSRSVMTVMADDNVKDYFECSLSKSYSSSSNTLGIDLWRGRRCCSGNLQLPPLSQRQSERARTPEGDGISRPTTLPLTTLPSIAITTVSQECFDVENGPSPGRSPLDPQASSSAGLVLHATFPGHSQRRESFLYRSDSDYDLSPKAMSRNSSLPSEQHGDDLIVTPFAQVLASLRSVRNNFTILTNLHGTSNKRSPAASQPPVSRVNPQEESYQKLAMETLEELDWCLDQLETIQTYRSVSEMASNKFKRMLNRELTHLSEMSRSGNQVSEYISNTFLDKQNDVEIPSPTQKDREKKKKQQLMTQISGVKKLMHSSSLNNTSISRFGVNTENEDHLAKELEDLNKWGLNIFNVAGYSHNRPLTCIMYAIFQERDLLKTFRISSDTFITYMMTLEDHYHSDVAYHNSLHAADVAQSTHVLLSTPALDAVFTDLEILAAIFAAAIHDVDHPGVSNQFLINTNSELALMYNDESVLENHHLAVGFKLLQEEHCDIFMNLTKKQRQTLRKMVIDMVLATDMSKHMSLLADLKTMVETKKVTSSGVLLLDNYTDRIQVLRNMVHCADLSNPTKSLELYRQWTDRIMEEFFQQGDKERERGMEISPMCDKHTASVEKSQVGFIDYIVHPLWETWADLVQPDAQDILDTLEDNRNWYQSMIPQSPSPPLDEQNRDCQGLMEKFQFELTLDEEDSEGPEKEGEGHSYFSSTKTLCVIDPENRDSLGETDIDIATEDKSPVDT

| SMILES | IC50 (human PDE5) [nM] | IC50 (PDE4B1) [nM] |
| --- | --- | --- |
| CCOc1ccc(C[C@@H](NC(=O)c2c(C)[nH]c3c(-c4cc(F)c(OC)cc4OCC4CC4)ncnc23)C(=O)N2CCC(N3N=C(c4ccc(OC)c(OC)c4)[C@H]4CCCC[C@H]4C3=O)CC2)cc1 [Example 8, 4-[2-(cyclopropylmethoxy)-5-fluoro-4-methoxyphenyl]-N-[(2R)-1-{4-[(4aS,8aR)-4-(3,4-dimethoxyphenyl)-1-oxo-4a,5,6,7,8,8a-hexahydrophthalazin-2(1H)-yl]piperidin-1-yl}-3-(4-ethoxyphenyl)-1-oxopropan-2-yl]-6-methyl-5H-pyrrolo[3,2-d]pyrimidine-7-carboxamide] | < 1 | 1 to 10 |
| COc1cc(OCC2CC2)c(-c2ncnc3c(C(=O)N[C@@H](CCC(=O)N4CCCCC4)C(=O)N4CCC(N5N=C(c6ccc(OC)c(OC)c6)[C@H]6CCCC[C@H]6C5=O)CC4)c(C)[nH]c23)cc1F [Example 84, 4-[2-(cyclopropylmethoxy)-5-fluoro-4-methoxyphenyl]-N-[(2S)-1-{4-[(4aS,8aR)-4-(3,4-dimethoxyphenyl)-1-oxo-4a,5,6,7,8,8a-hexahydrophthalazin-2(1H)-yl]piperidin-1-yl}-1,5-dioxo-5-(piperidin-1-yl)pentan-2-yl]-6-methyl-5H-pyrrolo[3,2-d]pyrimidine-7-carboxamide] | < 1 | 1 to 10 |
| COc1ccc(C2=NN(C3CCN(C(=O)[C@H](CCC(=O)N4CCCCC4)NC(=O)c4c(C)[nH]c5c(-c6c(OCC7CC7)ccc7c6OCO7)ncnc45)CC3)C(=O)[C@@H]3CCCC[C@H]23)cc1OC [Example 83, 4-[5-(cyclopropylmethoxy)-1,3-benzodioxol-4-yl]-N-[(2S)-1-{4-[(4aS,8aR)-4-(3,4-dimethoxyphenyl)-1-oxo-4a,5,6,7,8,8a-hexahydrophthalazin-2(1H)-yl]piperidin-1-yl}-1,5-dioxo-5-(piperidin-1-yl)pentan-2-yl]-6-methyl-5H-pyrrolo[3,2-d]pyrimidine-7-carboxamide] | < 1 | 1 to 10 |
| COc1cc(OCC2CC2)c(-c2ncnc3c(C(=O)N[C@H](Cc4ccccc4)C(=O)N4CCC(N5N=C(c6ccc(OC)c(OC)c6)[C@H]6CCCC[C@H]6C5=O)CC4)c(C)[nH]c23)cc1F [Example 22, 4-[2-(cyclopropylmethoxy)-5-fluoro-4-methoxyphenyl]-N-[(2R)-1-{4-[(4aS,8aR)-4-(3,4-dimethoxyphenyl)-1-oxo-4a,5,6,7,8,8a-hexahydrophthalazin-2(1H)-yl]piperidin-1-yl}-1-oxo-3-phenylpropan-2-yl]-6-methyl-5H-pyrrolo[3,2-d]pyrimidine-7-carboxamide] | 1 to 10 | 1 to 10 |
| COc1ccc(C2=NN(C3CCN(C(=O)[C@@H](Cc4ccc(F)c(F)c4)NC(=O)c4c[nH]c5c(-c6c(OCC7CC7)ccc7c6OCO7)ncnc45)CC3)C(=O)[C@@H]3CCCC[C@H]23)cc1OC [Example 19, 4-[5-(cyclopropylmethoxy)-1,3-benzodioxol-4-yl]-N-[(2R)-3-(3,4-difluorophenyl)-1-{4-[(4aS,8aR)-4-(3,4-dimethoxyphenyl)-1-oxo-4a,5,6,7,8,8a-hexahydrophthalazin-2(1H)-yl]piperidin-1-yl}-1-oxopropan-2-yl]-5H-pyrrolo[3,2-d]pyrimidine-7-carboxamide] | 1 to 10 | 1 to 10 |
| CCOc1ccc(C[C@@H](NC(=O)c2c[nH]c3c(-c4c(OCC5CC5)ccc5c4OCO5)ncnc23)C(=O)N2CCC(N3N=C(c4ccc(OC)c(OC)c4)[C@H]4CCCC[C@H]4C3=O)CC2)cc1 [Example 9, 4-[5-(cyclopropylmethoxy)-1,3-benzodioxol-4-yl]-N-[(2R)-1-{4-[(4aS,8aR)-4-(3,4-dimethoxyphenyl)-1-oxo-4a,5,6,7,8,8a-hexahydrophthalazin-2(1H)-yl]piperidin-1-yl}-3-(4-ethoxyphenyl)-1-oxopropan-2-yl]-5H-pyrrolo[3,2-d]pyrimidine-7-carboxamide] | < 1 | < 1 |
| COc1ccc(C2=NN(C3CCN(C(=O)[C@H](Cc4ccccn4)NC(=O)c4c[nH]c5c(-c6c(OCC7CC7)ccc7c6OCO7)ncnc45)CC3)C(=O)[C@@H]3CCCC[C@H]23)cc1OC [Example 39, 4-[5-(cyclopropylmethoxy)-1,3-benzodioxol-4-yl]-N-[(2S)-1-{4-[(4aS,8aR)-4-(3,4-dimethoxyphenyl)-1-oxo-4a,5,6,7,8,8a-hexahydrophthalazin-2(1H)-yl]piperidin-1-yl}-1-oxo-3-(pyridin-2-yl)propan-2-yl]-5H-pyrrolo[3,2-d]pyrimidine-7-carboxamide] | < 1 | < 1 |
| COc1ccc(C2=NN(C3CCN(C(=O)[C@H](CCC(=O)OCc4ccccc4)NC(=O)c4c[nH]c5c(-c6c(OCC7CC7)ccc7c6OCO7)ncnc45)CC3)C(=O)[C@@H]3CCCC[C@H]23)cc1OC [Example 104, Benzyl (4S)-4-[({4-[5-(cyclopropylmethoxy)-1,3-benzodioxol-4-yl]-5H-pyrrolo[3,2-d]pyrimidin-7-yl}carbonyl)amino]-5-{4-[(4aS,8aR)-4-(3,4-dimethoxyphenyl)-1-oxo-4a,5,6,7,8,8a-hexahydrophthalazin-2(1H)-yl]piperidin-1-yl}-5-oxopentanoate] | 1 to 10 | 1 to 10 |
| COc1ccc(C[C@@H](NC(=O)c2c[nH]c3c(-c4c(OCC5CC5)ccc5c4OCO5)ncnc23)C(=O)N2CCC(N3N=C(c4ccc(OC)c(OC)c4)[C@H]4CCCC[C@H]4C3=O)CC2)cc1 [Example 29, 4-[5-(cyclopropylmethoxy)-1,3-benzodioxol-4-yl]-N-[(2R)-1-{4-[(4aS,8aR)-4-(3,4-dimethoxyphenyl)-1-oxo-4a,5,6,7,8,8a-hexahydrophthalazin-2(1H)-yl]piperidin-1-yl}-3-(4-methoxyphenyl)-1-oxopropan-2-yl]-5H-pyrrolo[3,2-d]pyrimidine-7-carboxamide] | < 1 | 1 to 10 |
| COc1ccc(C2=NN(C3CCN(C(=O)[C@H](NC(=O)c4c(C)[nH]c5c(-c6c(OCC7CC7)ccc7c6OCO7)ncnc45)C(C)C)CC3)C(=O)[C@@H]3CCCC[C@H]23)cc1OC [Example 120, 4-[5-(cyclopropylmethoxy)-1,3-benzodioxol-4-yl]-N-[(2R)-1-{4-[(4aS,8aR)-4-(3,4-dimethoxyphenyl)-1-oxo-4a,5,6,7,8,8a-hexahydrophthalazin-2(1H)-yl]piperidin-1-yl}-3-methyl-1-oxobutan-2-yl]-6-methyl-5H-pyrrolo[3,2-d]pyrimidine-7-carboxamide] | 1 to 10 | 1 to 10 |
| COc1ccc(C2=NN(C3CCN(C(=O)[C@@H](Cc4ccc(C#N)cc4)NC(=O)c4c(C)[nH]c5c(-c6c(OCC7CC7)ccc7c6OCO7)ncnc45)CC3)C(=O)[C@@H]3CCCC[C@H]23)cc1OC [Example 14, N-[(2R)-3-(4-cyanophenyl)-1-{4-[(4aS,8aR)-4-(3,4-dimethoxyphenyl)-1-oxo-4a,5,6,7,8,8a-hexahydrophthalazin-2(1H)-yl]piperidin-1-yl}-1-oxopropan-2-yl]-4-[5-(cyclopropylmethoxy)-1,3-benzodioxol-4-yl]-6-methyl-5H-pyrrolo[3,2-d]pyrimidine-7-carboxamide] | > 10 | 1 to 10 |
| CC[C@H](NC(=O)c1c(C)[nH]c2c(-c3c(OCC4CC4)ccc4c3OCO4)ncnc12)C(=O)N1CCC(N2N=C(c3ccc(OC)c(OC)c3)[C@H]3CCCC[C@H]3C2=O)CC1 [Example 64, 4-[5-(cyclopropylmethoxy)-1,3-benzodioxol-4-yl]-N-[(2S)-1-{4-[(4aS,8aR)-4-(3,4-dimethoxyphenyl)-1-oxo-4a,5,6,7,8,8a-hexahydrophthalazin-2(1H)-yl]piperidin-1-yl}-1-oxobutan-2-yl]-6-methyl-5H-pyrrolo[3,2-d]pyrimidine-7-carboxamide] | < 1 | < 1 |
| COc1ccc(C2=NN(C3CCN(C(=O)[C@H](Cc4cccnc4)NC(=O)c4c[nH]c5c(-c6c(OCC7CC7)ccc7c6OCO7)ncnc45)CC3)C(=O)C3(CCCC3)C2)cc1OC [Example 125, 4-[5-(cyclopropylmethoxy)-1,3-benzodioxol-4-yl]-N-[(2S)-1-{4-[9-(3,4-dimethoxyphenyl)-6-oxo-7,8-diazaspiro[4.5]dec-8-en-7-yl]piperidin-1-yl}-1-oxo-3-(pyridin-3-yl)propan-2-yl]-5H-pyrrolo[3,2-d]pyrimidine-7-carboxamide] | 1 to 10 | 1 to 10 |
| COc1ccc(C2=NN(C3CCN(C(=O)[C@H](NC(=O)c4c[nH]c5c(-c6c(OCC7CC7)ccc7c6OCO7)ncnc45)[C@H](C)c4ccccc4)CC3)C(=O)[C@@H]3CCCC[C@H]23)cc1OC [Example 50, 4-[5-(cyclopropylmethoxy)-1,3-benzodioxol-4-yl]-N-[(2R,3R)-1-{4-[(4aS,8aR)-4-(3,4-dimethoxyphenyl)-1-oxo-4a,5,6,7,8,8a-hexahydrophthalazin-2(1H)-yl]piperidin-1-yl}-1-oxo-3-phenylbutan-2-yl]-5H-pyrrolo[3,2-d]pyrimidine-7-carboxamide] | 1 to 10 | < 1 |
| COc1ccc(C2=NN(C3CCN(C(=O)[C@H](CN(C)C)NC(=O)c4c[nH]c5c(-c6c(OCC7CC7)ccc7c6OCO7)ncnc45)CC3)C(=O)[C@@H]3CCCC[C@H]23)cc1OC [Example 97, 4-[5-(cyclopropylmethoxy)-1,3-benzodioxol-4-yl]-N-[(2S)-1-{4-[(4aS,8aR)-4-(3,4-dimethoxyphenyl)-1-oxo-4a,5,6,7,8,8a-hexahydrophthalazin-2(1H)-yl]piperidin-1-yl}-3-(dimethylamino)-1-oxopropan-2-yl]-5H-pyrrolo[3,2-d]pyrimidine-7-carboxamide] | 1 to 10 | 1 to 10 |
